Laboratory results: publication PMC11952846, “The sterol-regulating human ARV1 binds cholesterol and phospholipids through its conserved ARV1 homology domain” (The Journal of Biological Chemistry, 2025)
Numbering of substitutions follows the chain as printed.

How the values were obtained:
6XHIS-ARV1-N98 D72A = biological target: T1, 6XHIS-ARV1-N98 D72A (Homo sapiens, UniProt Q9H2C2, D72A); assay: Lipid overlay far western, site-directed mutant; format: binding; settings: compared to the ARV1-N98 protein
T1 construct: Expressing amino-terminal 98 amino acids of ARV1; made in house; host or cells: E. coli BL21 (pET-28a(+))
T1 sequence (Q9H2C2 1-98 D72A): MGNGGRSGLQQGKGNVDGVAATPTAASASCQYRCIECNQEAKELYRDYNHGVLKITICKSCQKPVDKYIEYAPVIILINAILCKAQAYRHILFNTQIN
How it was run: (§1)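 Steps: block overlays 1 h in Tris pH 7.5 saline with 0.5% Tween 20 and 3% BSA; wash; add 0.5 μg/ml protein with 0.1% Triton X-100 for 1 h at RT; wash; anti-tag antibody 1 h; HRP substrate imaging.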

6XHIS-ARV1-N98 E70A = biological target: T2, 6XHIS-ARV1-N98 E70A (Homo sapiens, UniProt Q9H2C2, E70A); assay: Lipid overlay far western, site-directed mutant; format: binding; settings: compared to the ARV1-N98 protein
T2 construct: Expressing amino-terminal 98 amino acids of ARV1; made in house; host or cells: E. coli BL21 (pET-28a(+))
T2 sequence (Q9H2C2 1-98 E70A): as the sequence (Q9H2C2 1-98 D72A) above, with E70A, A72D counted along it
How it was run: as §1

6XHIS-ARV1-N98 N94Q = biological target: T3, 6XHIS-ARV1-N98 N94Q (Homo sapiens, UniProt Q9H2C2, N94Q); assay: Lipid overlay far western, site-directed mutant; format: binding; settings: compared to the ARV1-N98 protein
T3 construct: Expressing amino-terminal 98 amino acids of ARV1; made in house; host or cells: E. coli BL21 (pET-28a(+))
T3 sequence (Q9H2C2 1-98 N94Q): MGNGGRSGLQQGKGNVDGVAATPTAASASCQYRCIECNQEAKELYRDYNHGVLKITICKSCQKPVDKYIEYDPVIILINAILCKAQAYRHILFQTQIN
How it was run: as §1

6XHIS-ARV1-N98 K54/K59A = biological target: T4, 6XHIS-ARV1-N98 K54/K59A (Homo sapiens, UniProt Q9H2C2, K54A/K59A); assay: Lipid overlay far western, site-directed mutant; format: binding; settings: compared to the ARV1-N98 protein
T4 construct: Expressing amino-terminal 98 amino acids of ARV1; made in house; host or cells: E. coli BL21 (pET-28a(+))
T4 sequence (Q9H2C2 1-98 K54A/K59A): T3 sequence (Q9H2C2 1-98 N94Q) with K54A, K59A, Q94N
How it was run: as §1

GST-ARV1-N70 = biological target: T5, GST-ARV1-N70 (Homo sapiens, UniProt Q9H2C2); assay: Lipid overlay far western, truncation; format: binding; settings: compared to ARV1-N98
T5 construct: Expresses amino-terminal 70 amino acids of ARV1; made in house; host or cells: E. coli BL21 (pGEX-4T1)
T5 sequence (Q9H2C2 1-70): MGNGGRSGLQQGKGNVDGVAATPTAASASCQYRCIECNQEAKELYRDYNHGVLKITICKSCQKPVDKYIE
How it was run: as §1

6XHIS-ARV1-N98 = biological target: T6, 6XHIS-ARV1-N98 (Homo sapiens, UniProt Q9H2C2); assay: HTRF phospholipid lipid-binding assay; settings: biotinylated lipid (Bio-PL) titrated, 0.75 μM protein; lipid labels mean the biotinylated lipids
T6 construct: made in house; host or cells: E. coli BL21
T6 sequence (Q9H2C2 1-98): T3 sequence (Q9H2C2 1-98 N94Q) with Q94N
Text: An HTRF assay was developed for 6XHIS-ARV1-N98-lipid binding. HTRF measures analyte interactions through fluorescence resonance energy transfer technology and time-resolved measurements ([53]). The interaction between two molecules can be quantified through binding each individual molecule involved with a fluorescent label and then analyzing the transfer of energy between the initial donor fluorophore and the secondary acceptor fluorophore. Following excitation of the first fluorophore, transfer of energy can only occur if the molecules bound with the fluorescent tags are within proximity to each other.
Assays were plated in 384-well flat bottom microplates (Greiner Bio, catalog #784075-25). Proteins were diluted using binding buffer (20 mM Hepes buffer, pH 7.2, containing 0.1% BSA, and 0.01% Tween20) to a stock concentration of 0.75 μM, and biotinylated phospholipids were dispensed, dried under nitrogen gas, and resuspended in binding buffer to a stock concentration of 50 μM. The lipid stock solution was diluted by 1:2 for a series of 12 serial dilutions. For the assay, in sequential order, 6 μl of binding buffer was loaded into the plate in triplicate for each dilution of phospholipid. To this, 2 μl of 0.75 μM 6XHIS-ARV1-N98 was added, followed by 2 μl of biotinylated phospholipid. Immediately following each addition loaded into the plate, the plate was centrifuged for 1 min at 1000 rpm to bring the contents to the bottom of the well. Next, detection antibodies were mixed with detection buffer (20 mM Hepes buffer, pH 8.5, containing 0.01% BSA and 200 mM KF). […] Plates were read on a PerkinElmer EnVision Xcite Multilabel plate reader.
Curves were logarithmically transformed and normalized to a common scale before being fit with a nonlinear regression of the agonist against the normalized response. […] For phospholipid competition analysis, IC50; M values were determined using nonlinear regression of the inhibitor against normalized response.

| Compound | EC50 (6XHIS-ARV1-N98) [µM] | change of lipid-protein interaction (6XHIS-ARV1-N98 D72A) | change of lipid-protein interaction (6XHIS-ARV1-N98 E70A) | change of lipid-protein interaction (6XHIS-ARV1-N98 N94Q) | change of lipid-protein interaction (6XHIS-ARV1-N98 K54/K59A) | change of lipid-protein interaction (GST-ARV1-N70) |
| --- | --- | --- | --- | --- | --- | --- |
| CCCCC/C=C\C/C=C\CCCCCCCC(=O)OC[C@H](COP(=O)(O)OCC(O)COP(=O)(O)OC[C@@H](COC(=O)CCCCCCC/C=C\C/C=C\CCCCC)OC(=O)CCCCCCC/C=C\C/C=C\CCCCC)OC(=O)CCCCCCC/C=C\C/C=C\CCCCC (stereo partly drawn) [CL, cardiolipin] | – | weakened | weakened | more strongly | – | – |
| CCCCCCCC/C=C\CCCCCCCC(=O)OC[C@H](COP(=O)(O)OCC(O)CO)OC(=O)CCCCCCC/C=C\CCCCCCCC (stereo partly drawn) [PG, phosphatidylglycerol] | – | weakened | weakened | more strongly | abolished | – |
| CCCCCCCCCCCCCCCCCC(=O)OC[C@H](COP(=O)(O)OC[C@H](N)C(=O)O)OC(=O)CCCCCCCCCCCCCCCCC [PS, phosphatidylserine] | – | – | – | – | – | reduced interactions |
| CCCCCC(=O)O[C@H](COC(=O)CCCCCNC(=O)CCCC[C@@H]1SC[C@@H]2NC(=O)N[C@@H]21)COP(=O)(O)O[C@H]1[C@H](O)[C@@H](O)[C@H](OP(=O)(O)O)[C@@H](O)[C@H]1O [reference compound] | – | – | – | – | increasing the interaction | enhanced |

Second part, led by results:

| EC50 (6XHIS-ARV1-N98) [µM] | Compound | change of lipid-protein interaction (6XHIS-ARV1-N98 D72A) | change of lipid-protein interaction (6XHIS-ARV1-N98 E70A) | change of lipid-protein interaction (6XHIS-ARV1-N98 N94Q) | change of lipid-protein interaction (6XHIS-ARV1-N98 K54/K59A) | change of lipid-protein interaction (GST-ARV1-N70) |
| --- | --- | --- | --- | --- | --- | --- |
| 1.1 | phosphatidylcholine [PC] | – | – | – | – | – |
| 5.3 | phosphatidylethanolamine [PE] | – | – | – | – | – |
